# Measurements from article PMC11678162 (Pharmaceutics, 2024).
# Bridge positions count the residues as written; N and C are the ends. Square brackets hold non-standard residues; d marks the D form. Peptide text beside a SMILES is read from it. pGlu = O=C1CC[C@@H](C(=O)O)N1
# Key:
# [1] = system: human peripheral blood mononuclear cells (PBMC); test: Cytotoxicity, resazurin assay; assay type: cell-based; conditions: RPMI-1640 + 10% FBS, 24 h of incubation
# Experimental: The cytotoxic effect of the peptides was tested on human peripheral blood mononuclear cells (PBMC) using the resazurin assay. To perform the analysis, double serial dilutions of the studied peptides were performed in RPMI-1640 nutrient medium supplemented with 10% FBS in sterile 96-well flat-bottom polystyrene microplates (Nest, Wuxi, Jiangsu, China). Next, an equal volume of RPMI medium containing a suspension of freshly isolated PBMC was added to the peptide solution to a total volume of 100 μL and a cell concentration of 5 × 10^4 per well. The plates were incubated for 20 h in a CO2 incubator (5% CO2, 37 °C) and then 5 µL of resazurin solution was added at a concentration of 0.1 mg/mL, after which the incubation was continued for 4 h. The fluorescence of the formed resorufin was measured using an AF2200 microplate reader (Eppendorf, Germany) using the following channel: λExc = 535 nm; λem = 595 nm. The fluorescence signal in the wells containing cells cultured without peptides was taken as a 100% cell viability. Wells containing no cells were used as a negative control. Experimental data were obtained in two independent experiments performed in triplicate.
# [2] = system: freshly isolated human erythrocytes (hRBCs); test: Hemolysis (hemoglobin release assay); assay type: cell-based; conditions: 4% hRBCs, 1.5 h of incubation
# Experimental: Hemolytic activity was determined using freshly isolated human erythrocytes (hRBCs) according to a previously published method. Isotonic phosphate buffer (PBS) and 0.1% Triton X-100 were used as controls for the absence of lysis and complete disintegration of hRBCs, respectively.
# Stability in serum = assay type: in vitro ADME, human; conditions: 37 °C
# Experimental: The serum stability of DsGom was determined in 25% fresh human serum in PBS (pH 7.4), as described previously. Briefly, 20 μL of aqueous peptide stock solution (5 mg/mL) was added to 480 μL of serum solution and incubated for 0, 2, 8, and 24 h at 37 °C. After incubation, serum proteins were selectively precipitated from the mixture by adding 10% TFA in the presence of 3.75 M of urea. Subsequently, the samples were stored at 0 °C for 30 min and centrifuged at 30,000× g for 10 min. Equal volumes of supernatants after serum protein precipitation were analyzed by analytical HPLC (Symmetry 300 C18 column, Waters, Milford, MA, USA) and MALDI-TOF MS. The amount of the intact peptide was estimated from the corresponding peak area on the HPLC chromatogram. For each peptide, two independent experiments were performed in triplicate. The comparison of the results and statistical processing were performed using GraphPad Prism 6.0 (GraphPad Software, Boston, MA, USA).
# [3] = 25% fresh human serum in PBS (pH 7.4); conditions: 37 °C, up to 24 h
# serum = conditions: cited from earlier work
molecule,measurement,setting,value
"CC(C)[C@@H]1NC(=O)[C@@H]2CSSC[C@H](NC(=O)[C@H](C(C)C)NC(=O)[C@H](CCCNC(=N)N)NC(=O)[C@H](CCCNC(=N)N)NC(=O)[C@@H](NC(=O)[C@@H](N)CCCNC(=N)N)CSSC[C@@H](C(=O)O)NC(=O)[C@H](Cc3ccc(O)cc3)NC(=O)[C@H](CCC(N)=O)NC1=O)C(=O)N[C@@H](Cc1ccc(O)cc1)C(=O)N[C@@H](CCCCN)C(=O)N[C@@H](CCCCN)C(=O)N[C@@H](Cc1c[nH]cn1)C(=O)N2 [DS5] (H-RCRRVCYKKHCVQYC-OH; disulfide 2-15, 6-11)",cytotoxic effects on PBMC (in words),[1],significantly enhanced cytotoxic effects on PBMC
"CC(C)[C@@H]1NC(=O)[C@@H]2CSSC[C@H](NC(=O)[C@H](C(C)C)NC(=O)[C@H](CCCNC(=N)N)NC(=O)[C@H](CCCNC(=N)N)NC(=O)[C@@H](NC(=O)[C@@H](N)CCCNC(=N)N)CSSC[C@@H](C(=O)O)NC(=O)[C@H](Cc3ccc(O)cc3)NC(=O)[C@H](CCC(N)=O)NC1=O)C(=O)N[C@@H](Cc1ccc(O)cc1)C(=O)N[C@@H](CCCCN)C(=O)N[C@@H](CCCCN)C(=O)N[C@@H](CCCNC(=N)N)C(=O)N2 [DS7] (H-RCRRVCYKKRCVQYC-OH; disulfide 2-15, 6-11)",cytotoxic effects on PBMC (in words),[1],significantly enhanced cytotoxic effects on PBMC
"CC(C)[C@@H]1NC(=O)[C@@H]2CSSC[C@H](NC(=O)[C@H](C(C)C)NC(=O)[C@H](CCCNC(=N)N)NC(=O)[C@H](Cc3c[nH]cn3)NC(=O)[C@@H](NC(=O)[C@@H](N)CCCNC(=N)N)CSSC[C@@H](C(=O)O)NC(=O)[C@H](Cc3ccc(O)cc3)NC(=O)[C@H](CCC(N)=O)NC1=O)C(=O)N[C@@H](Cc1ccc(O)cc1)C(=O)N[C@@H](Cc1c[nH]cn1)C(=O)N[C@@H](CCCCN)C(=O)N[C@@H](Cc1c[nH]cn1)C(=O)N2 [DsGom] (H-RCHRVCYHKHCVQYC-OH; disulfide 2-15, 6-11)",grade of hemolysis,"[2]; 128 µM peptide, 0.1% Triton X-100 = complete lysis, two independent experiments",~ 1%
same,"remaining at 24 h, 0.2 mg/mL","Stability in serum; 25% fresh human serum in PBS (pH 7.4), 20 μL of 5 mg/mL stock in 480 μL, TFA/urea precipitation, HPLC peak area (0 h = 100%), two independent experiments in triplicate, read-out: initial amount of peptide remaining intact",≥ 90%
same,percentage of the form without the N-terminal arginine residue in the main peak,"Stability in serum; 25% human serum in PBS, 24 h, MALDI MS of the HPLC fraction",< 10%
"CC(C)C[C@@H]1NC(=O)[C@H](CCCNC(=N)N)NC(=O)[C@H](CCCNC(=N)N)NC(=O)[C@@H](NC(=O)[C@@H]2CCC(=O)N2)CSSC[C@@H](C(=O)N[C@@H](CO)C(=O)NCC(=O)N[C@@H](CCCNC(=N)N)C(=O)O)NC(=O)[C@H](Cc2ccc(O)cc2)NC(=O)[C@H]([C@@H](C)O)NC(=O)[C@H](CC(C)C)NC(=O)[C@@H]2CSSC[C@H](NC1=O)C(=O)N[C@@H](Cc1ccccc1)C(=O)N[C@@H](CCCNC(=N)N)C(=O)N[C@@H](CC(N)=O)C(=O)N[C@@H](CCCNC(=N)N)C(=O)N2 [Gom-2] ([pGlu]CRRLCFRNRCLTYCSGR-OH; disulfide 2-15, 6-11)",hemolytic activity (in words),[2]; compared to gomesin,significantly higher grade of hemolytic activity
RCHRVCYHKHCVQYC,cleaved bond,[3],"Arg1-C2, minor, 8 h"
ZCRRLCYKQRCVTYCRGR,not cleaved,serum,quite stable in the presence of serum enzymes
